Tests used:
Ac-PGP = experiment: Loss of function of Ac-PGP by treatment with RTR in vivo; design: species or system mouse
[1] = tested on: probiotic strains RSB11, RSB12, or RSB13; experiment: Culture growth of probiotic strains with herbal extracts or Vitamin D; type: cell-based, Lactobacillus; conditions: number of colonies per plate; FIG. 11
C57BL/6 mouse pups = experiment: In vivo (mouse) dysbiosis model of chronic lung disease, LPS-treated pups

Arginine-Threonine-Arginine [RTR]
chronic lung disease (Ac-PGP; in vivo, FIG. 9): protective | RAC (Ac-PGP; noxious stimuli, LPS+RTR vs LPS alone, P<0.05, FIG. 9B): significantly higher | MPO concentrations (Ac-PGP; noxious stimuli, LPS+RTR vs LPS alone, P<0.05, FIG. 9C): significantly lower | RVH (Ac-PGP; noxious stimuli, LPS+RTR vs LPS alone, P<0.05, FIG. 9D): significantly less severe

N-acetyl-Proline-Glycine-Proline [Ac-PGP]
NE concentrations (mice; BALF, normoxia and noxious stimuli, P<0.05, FIG. 8C): increased | MPO concentration (mice; ELISA, normoxia and noxious stimuli, P<0.05, FIG. 8B): increased | chronic lung disease (mice; gain of function, in vivo, FIG. 8): causes chronic lung disease | RAC counts (mice; normoxia and noxious stimuli, P<0.05, FIG. 8A): decreased | right ventricular hypertrophy (RVH) (mice; normoxia and noxious stimuli, P<0.05, FIG. 8D): increased

Vitamin D
culture growth of probiotic strains RSB11, RSB12, RSB13 [1]: do not have an inhibitory effect

lipopolysaccharide [LPS]
Ac-PGP levels (C57BL/6 mouse pups; BALF, by HPLC, vs controls, P<0.05, FIG. 7E): significantly increased | myeloperoxidase (MPO) levels (C57BL/6 mouse pups; BALF, vs controls, P<0.05, FIG. 7C): significantly increased | neutrophil elastase (NE) levels (C57BL/6 mouse pups; BALF, vs controls, P<0.05, FIG. 7D): significantly increased | lung tissue structure (C57BL/6 mouse pups; LPS-treated C57BL/6 mouse pups, FIG. 7A): alveolar hypoplasia and simplification | radial alveolar counts (RAC) (C57BL/6 mouse pups; vs controls, P<0.05, FIG. 7B): significantly decreased

— patent publication US20220401500A1, “BACTERIA AND HERBAL EXTRACT NUTRACEUTICAL BLENDS FOR LUNG HEALTH MAINTENANCE” (THE UAB RESEARCH FOUNDATION, priority 2021, published 2022)
